Reference: PubChem BioAssay AID2060358 (Molecular Pharmacology Branch, DTP, NCI, 2025)

Tested on: 254851-301-R-J1-PDC spheroids, viability % test/control
Experiment: Anticancer human tumor 254851-301-R-J1-PDC patient-derived colon carcinoma cell line growth inhibition [TAK]
Details: spheroids with HUVEC and MSC; for IC50: curve of first compound; for viability, T/C: stronger effect = lower value
Procedure, shortened: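 Spheroids of 60% malignant cells, 25% HUVEC and 15% hMSC were exposed to targeted agents combined with TAK-243 or ipatasertib. Concentrations started at or near clinical Cmax (10 microM if unknown) and descended in half-log steps.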

[1] = second compound 0.3 µM, first compound 0.0316 µM
[2] = second compound 0.3 µM, first compound 0.1 µM
[3] = second compound 0.949 µM, first compound 0.0316 µM
[4] = second compound 0.949 µM, first compound 0.1 µM
[5] = second compound 3 µM, first compound 0.0316 µM
[6] = second compound 3 µM, first compound 0.1 µM
[7] = second compound 9.49 µM, first compound 0.0316 µM
[8] = second compound 9.49 µM, first compound 0.1 µM
[9] = second compound 30 µM, first compound 0.0316 µM
[10] = second compound 30 µM, first compound 0.1 µM
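Also: spheroids exposed to drugs for seven days before viability readout.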
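For viability, T/C in this document: 100% = DMSO vehicle control viability.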

For `CC(C)(C)c1nc(-c2cccc(NS(=O)(=O)c3c(F)cccc3F)c2F)c(-c2ccnc(N)n2)s1` + CC(C)NCC(C(=O)N1CCN(c2ncnc3c2C(C)CC3O)CC1)c1ccc(Cl)cc1, the IC50 (second compound 0.3 µM) was greater than 10000 nM, the IC50 (second compound 0.949 µM) was greater than 10000 nM and the IC50 (second compound 3 µM) was greater than 10000 nM. For the same compound, the IC50 (second compound 9.49 µM) was greater than 10000 nM, the IC50 (second compound 30 µM) was greater than 10000 nM and the viability, T/C [1] was 114%. The viability, T/C [2] was 103%, the viability, T/C (second compound 0.3 µM, first compound 0.316 µM) was 87.3% and the viability, T/C (second compound 0.3 µM, first compound 1 µM) was 84.8%. The viability, T/C (second compound 0.3 µM, first compound 3.16 µM) was 77%, the viability, T/C (second compound 0.3 µM, first compound 10 µM) was 72% and the viability, T/C [3] was 115%. For the same compound, the viability, T/C [4] was 104%, the viability, T/C (second compound 0.949 µM, first compound 0.316 µM) was 95.2% and the viability, T/C (second compound 0.949 µM, first compound 1 µM) was 81%. For the same compound, the viability, T/C (second compound 0.949 µM, first compound 3.16 µM) was 76%, the viability, T/C (second compound 0.949 µM, first compound 10 µM) was 75.4% and the viability, T/C [5] was 106%. For the same compound, the viability, T/C [6] was 107%, the viability, T/C (second compound 3 µM, first compound 0.316 µM) was 88.1% and the viability, T/C (second compound 3 µM, first compound 1 µM) was 79.4%. It also gave a viability, T/C (second compound 3 µM, first compound 3.16 µM) of 75.6%, a viability, T/C (second compound 3 µM, first compound 10 µM) of 63.8% and a viability, T/C [7] of 101%. The viability, T/C [8] was 105%, the viability, T/C (second compound 9.49 µM, first compound 0.316 µM) was 92.5% and the viability, T/C (second compound 9.49 µM, first compound 1 µM) was 78.4%. For the same compound, the viability, T/C (second compound 9.49 µM, first compound 3.16 µM) was 71.8%, the viability, T/C (second compound 9.49 µM, first compound 10 µM) was 64.7% and the viability, T/C [9] was 79%. It also gave a viability, T/C [10] of 81.7%, a viability, T/C (second compound 30 µM, first compound 0.316 µM) of 83.9% and a viability, T/C (second compound 30 µM, first compound 1 µM) of 69.1%. For the same compound, the viability, T/C (second compound 30 µM, first compound 3.16 µM) was 59.7% and the viability, T/C (second compound 30 µM, first compound 10 µM) was 54.6%.
Work on `CC(C)CC(NC(=O)CNC(=O)c1cc(Cl)ccc1Cl)B1OC(=O)CC(CC(=O)O)(C(=O)O)O1` (stereo not given) + CC(C)NCC(C(=O)N1CCN(c2ncnc3c2C(C)CC3O)CC1)c1ccc(Cl)cc1 yielded an IC50 (second compound 0.3 µM) of 53.7 nM, an IC50 (second compound 0.949 µM) of 49.7 nM and an IC50 (second compound 3 µM) of 49.2 nM. The IC50 (second compound 9.49 µM) was 56.9 nM, the IC50 (second compound 30 µM) was 57.6 nM and the viability, T/C (second compound 0.3 µM, first compound 0.000316 µM) was 103%. For the same compound, the viability, T/C (second compound 0.3 µM, first compound 0.001 µM) was 100%, the viability, T/C (second compound 0.3 µM, first compound 0.00316 µM) was 95.8% and the viability, T/C (second compound 0.3 µM, first compound 0.01 µM) was 101%. For the same compound, the viability, T/C [1] was 73.7%, the viability, T/C [2] was 22.2% and the viability, T/C (second compound 0.949 µM, first compound 0.000316 µM) was 98.6%. For the same compound, the viability, T/C (second compound 0.949 µM, first compound 0.001 µM) was 102%, the viability, T/C (second compound 0.949 µM, first compound 0.00316 µM) was 95.3% and the viability, T/C (second compound 0.949 µM, first compound 0.01 µM) was 95%. The viability, T/C [3] was 67.3%, the viability, T/C [4] was 23.2% and the viability, T/C (second compound 3 µM, first compound 0.000316 µM) was 95.8%. It also gave a viability, T/C (second compound 3 µM, first compound 0.001 µM) of 107%, a viability, T/C (second compound 3 µM, first compound 0.00316 µM) of 98.9% and a viability, T/C (second compound 3 µM, first compound 0.01 µM) of 102%. For the same compound, the viability, T/C [5] was 70.2%, the viability, T/C [6] was 17.9% and the viability, T/C (second compound 9.49 µM, first compound 0.000316 µM) was 96.8%. For the same compound, the viability, T/C (second compound 9.49 µM, first compound 0.001 µM) was 101%, the viability, T/C (second compound 9.49 µM, first compound 0.00316 µM) was 97.7% and the viability, T/C (second compound 9.49 µM, first compound 0.01 µM) was 95.1%. For the same compound, the viability, T/C [7] was 76.6%, the viability, T/C [8] was 24.5% and the viability, T/C (second compound 30 µM, first compound 0.000316 µM) was 78.2%. The viability, T/C (second compound 30 µM, first compound 0.001 µM) was 63%, the viability, T/C (second compound 30 µM, first compound 0.00316 µM) was 81.4% and the viability, T/C (second compound 30 µM, first compound 0.01 µM) was 86%. It also gave a viability, T/C [9] of 80% and a viability, T/C [10] of 24.4%.
